Key:
Type in all cases: cell-based
MMP-13 = assay: Western blot of MMP-13 in ovarian carcinoma cell lines; conditions: panel of ovarian carcinoma cell lines, 2 μM for 48 hours vs 0.02% DMSO
Procedure: (§1) FIG. 11 is a western blot image showing the increase in epithelial marker E-cadherin expression and the decrease of mesenchymal marker MMP-13 expression in panel of ovarian carcinoma cell lines treated with AZD0530. Cell lines were treated with 2 μM AZD0530 or 0.02% DMSO control for 48 hours. Thus, FIG. 11 provides an example of possible downstream analysis that may be conducted subsequent to the detection of possible inhibitor by the method as described herein. In this figure, western blot analysis was used to validate the possible inhibitor detected by the method as described herein.
(§2) For western blot experiments with other cell lines, cells are treated either with AZD0530, such as 2 μM AZD0530 or DMSO, such as 0.02% DMSO control for 48 h. The samples are then processed using the same procedure as described above. The samples were probed with MMP-13, E-cadherin, plakoglobin (Cell Signaling), α-tubulin, and β-actin (Cell Signaling) antibodies.

[1] = tested on: ovarian carcinoma cell lines; assay: Phase contrast cell morphology, ovarian carcinoma cell lines; conditions: A2780J, DOV13 and HEY cell lines, 2 μM for 48 hours vs 0.02% DMSO
Procedure: Cell lines were treated with 2 μM AZD0530 or 0.02% DMSO control for 48 hours. Scale bar is 200 μm. Thus, FIG. 9 provides an example of how the method as described herein may be validated by the use of various ovarian carcinoma cell lines.

[2] = tested on: HGF-induced EMT in NBT-II cells; assay: EMT spot migration assay, HGF-induced; conditions: HGF-induced EMT (4 ng/ml HGF), CDR dose response from 6.67 μM, read-out: Cell Dispersion IC 50, HGF
Procedure: (§3) NBT-II cells were stably transfected with mcherry-fluorescent H2B and maintained in DMEM supplemented with 10% fetal bovine serum (FBS, Thermo Scientific), 1 μg/ml puromycin (Sigma) and 100 units/ml penicillin-streptomycin (1× pen-strep, Invitrogen). Cells were grown to 80% confluency in tissue culture flasks prior to plating. Cells were trypsinized and concentrated to a density of 5×10^6 cell/ml in CO2-independent medium (Invitrogen) supplemented with 10% FBS. The cell suspension was then evenly dispersed into the wells of two columns of a 96-well V-bottom plate. Using a robotic liquid-handling station (Bravo, Agilent Technologies), 0.5 μl of cell suspension was transferred from the two columns of the cell suspension-loaded plate and deposited into the center of the wells of two columns of a 96-well clear bottom, black assay plate (Corning). This process was repeated six times so that all 96 wells of the assay plate were deposited with a cell suspension spot. The plate was then sealed to minimize evaporation of the cell suspension spots and transferred to a 37° C., 5% CO2 incubator to allow for cells to attach to the culture surface. After 1 hour, the plate was gently washed with medium once to remove unattached cells, refreshed with 100 μl of assay medium (DMEM supplemented with 10% FBS and 1× pen-strep), and then further incubated to allow for cell-cell contacts to establish in the cell colonies.
(§4) Four tiled, non-overlapping images were acquired around the center of each well, and were then stitched together during image analysis to generate a montage covering an area of 3.2 mm×3.2 mm. These images (T1) represent the initial state of the cell colonies before EMT induction.
(§5) After the T1 images were acquired, 1 μl of test compounds were transferred from compound stock plates and added to the assay plates. Appropriate negative controls (1 μl DMSO) and positive controls (1 μl 1.0 mM compound in DMSO) were also added into columns 1 and 12 of each assay plate, respectively. […] The cultures were then further incubated overnight.
(§6) The next day, 50 μl of growth factor-containing medium was added to each well of the assay-plates. For each of the growth factor-induced EMT spot migration assays, the final growth factor concentrations in each well is optimized to be 20 ng/ml EGF (Sigma), 4 ng/ml HGF (Calbiochem) or 150 ng/ml IGF-1 (R&D Systems), respectively. The cultures were then incubated for another 24 hours, to allow for EMT and sufficient cell motility/dispersion to occur in the cell colonies.
(§7) Finally, the cell colonies were imaged again using the microplate imager, as described above. These images (T2) represent the final state of the cell colonies after compound treatment and EMT induction. The acquired T1 and T2 image sets for each assay plate were then sent for image analysis.
(§8) The acquisition of each well was obtained by four adjacent field images with no interstice in between. Each field image was loaded and nuclei were initially segmented independently of other fields to prevent artifact at the field border. Nuclei segmentation was achieved by combining a wavelet transform which is robust to noise and unhomogeneous background, and a watershed algorithm based on intensities to split nuclei clusters. Mask of nuclei segmentation of the different fields were then stitched together in order to obtain a large segmentation of the whole well. Cell bodies were estimated by applying a morphological dilation on the nucleus segmentation using a disk of 30 pixels (48 μm) in diameter. In cells that are contiguous, such as in a cell colony, nuclei segmentation dilation will result in the formation of continuous region areas with surrounding cells which can then be identified as colonies.
(§9) Total cell number and spreading coefficient values for each well were then exported into an Excel sheet.

E-cadherin = assay: Western blot of E-cadherin in ovarian carcinoma cell lines; conditions: panel of ovarian carcinoma cell lines, 2 μM for 48 hours vs 0.02% DMSO
Procedure: as §1, §2

[3] = tested on: EGF-induced EMT in NBT-II cells; assay: EMT spot migration assay, EGF-induced; conditions: EGF-induced EMT (20 ng/ml EGF), NBT-II cells, CDR dose response from 6.67 μM; read-out: Cell Dispersion IC 50, EGF
Procedure: as §3, §4, §5, §6, §7, §8, §9

[4] = tested on: lung carcinoma cell lines; assay: Phase contrast cell morphology, lung carcinoma cell lines; conditions: A549, Calu-1 and H165.0 cell lines, 2 μM for 48 hours vs 0.02% DMSO
Procedure: Cell lines were treated with 2 μM AZD0530 or 0.02% DMSO control for 48 hours. Scale bar is 100 μm. Thus, FIG. 8 provides an example of how the method as described herein may be validated by the use of various lung carcinoma cell lines.

IC50 [2]: 510 nM | IC50 [3]: 560 nM
SMILES: CN1CCN(CCOc2cc(OC3CCOCC3)c3c(Nc4c(Cl)ccc5c4OCO5)ncnc3c2)CC1 [AZD0530]
Mesenchymal marker MMP-13 expression (MMP-13): decrease | Cell morphology (phase contrast) [1]: compaction of cell morphology | Epithelial marker E-cadherin expression (E-cadherin): increase | Cell morphology (phase contrast) [4]: compaction of cell morphology

From patent publication US20150004620A1, “METHOD OR DEVICE FOR IDENTIFYING INHIBITOR OF EPITHELIAL MESENCHYMAL TRANSITION” (Agency for Science, Technology and Research, priority 2011, published 2015)
